In patent publication US11332438B2, “Creatine prodrugs, compositions and methods of use thereof” (Ultragenyx Pharmaceutical Inc., priority 2017, dated 2022):

Tests used:
[1] = Chemical stability in simulated gastric fluid (SGF) without pepsin; type: physicochemical; conditions: 50 μM prodrug
In short: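 Incubations used 50 μM compound at 37 °C in phosphate buffered saline, fasted simulated intestinal fluid without pancreatin, or fasted simulated gastric fluid without pepsin.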

[2] = In vivo IV dosing in CrT KO mice: prodrug, d3-Cr and d3-Crn in brain (Table 5); conditions: IV 10 mg/kg, CrT KO mouse brain; BQL prodrug = 41.2 ng/mL
In short: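 CrT KO mice received prodrugs by IV injection at 10, 15 or 25 mg/kg. Brains were collected, flash frozen and homogenized in 100 mM KPI buffer with anti-proteases. Prodrug, d3-Cr and d3-Crn were quantified by LC-MS/MS and expressed as brain concentration (macrocycles) or AUC over time (linear prodrugs).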

[3] = d3-Creatine and d3-creatinine concentration in CrT KO mice brain after IV bolus dose (FIGS. 3 and 4, Table 6); type: in vivo; conditions: CrT KO mice, 10 mg/kg IV, FIG. 4
Procedure: The brain concentrations of d3-creatine and d3-creatinine was measured in CrT KO mice following 10 mg/kg single dose IV bolus dose of compound 14 and 15 (FIGS. 3 and 4). As shown by FIG. 3, brain d3-creatine concentration was higher following administration of compound 15 compared to compound 14. […] Without bound to any theory, the macrocyclic compound 15 prodrug reduces d3-creatine cyclization to d3-creatinine when compared to linear compound 14 prodrug.
The concentration of d3-creatine in CrT KO mice brain were also measured for other compounds disclosed in the present application as shown in Table 6. The concentrations of d3-creatine, d3-creatinine and creatine prodrugs are measured by LC-MS/MS. The brain sample is homogenized with 4× (weight to volume) of KPI 100 mM buffer containing anti-proteases and anti-phosphatases (if needed). 50 μl of brain homogenate is then de-proteinized using 4× volume/volume of a solution containing 80% acetonitrile and 20% water with bucetin, d5-Cr (internal standard). The plate is then spun at 4000 rpm, 10 minutes, 4° C. and samples are transferred to a new plate for bioanalysis. Each analyte in each sample was quantitated against a curve in matching biomatrix using an authentic standard.

[4] = Repeat dosing study, d3-creatine levels in non-human primate (NHP) brain (FIG. 2, Table 7); type: in vivo; conditions: 7 infusions q.d., all brain regions tested
Procedure: FIG. 2 is a graph of the data from a multi-dose study comparing d3-creatine and d3-creatinine levels in the brain of non-human primates, measured after a total of 7 infusions of compound 14 administered q.d. (once daily). Cr=d3-creatine; CRN=d3-creatinine.
Non-human primate (NHP) brains were dosed with Compound 8 (120 mg/kg) and Compound 14 (18 mg/kg) over a seven day period (i.v. infusion provide q.d.).

[5] = Liver microsome stability, human; type: in vitro ADME; conditions: liver microsomes, pH 7.4, Table 2C, read-out: Microsome Stability Human t1/2
In short: (§1)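 Remaining compound measured by LC/MS after acetonitrile/internal-standard quench at 0–60 min time points (0, 5, 10, 20, 30, 60). Incubations used mouse or human liver microsomes in pH 7.4 potassium phosphate/EDTA buffer with NADPH; a 60-min sample without NADPH served as control.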

[6] = Liver microsome stability, mouse; type: in vitro ADME; conditions: liver microsomes, pH 7.4, Table 2C, read-out: Microsome Stability Mouse t1/2
In short: as §1

[7] = test system: Phenocell CrT deficient neurons (iPSC-derived human neurons); experiment: Creatine prodrug uptake and d3-creatine release in Phenocell CrT deficient neurons (Table 4B); type: cell-based; conditions: 2 hours
Procedure: Human neurons were obtained by differentiation of iPSC-derived neural stem cells for 14 days. The iPSCs were obtained from Phenocell Corporation. Neurons were cultured and differentiated to Day 10 and then frozen in liquid nitrogen. Neurons were thawed and replated at 1×10^6 per well of viable cells on poly-ornithine/laminin coated plates in 2 ml medium per well. Differentiation in complete Neurol medium with 2 ng/ml FGF2 was carried out for 4 additional days with a complete medium change (90% of medium) on Day 12. Activin A (20 ng/ml final conc.) was spiked into the cultures on Day 11 and Day 13. […] In parallel, compounds were incubated in medium alone to assess chemical stability of parent prodrug and metabolites. At the end of the 2 hour incubation, supernatants were collected and frozen at −80 C. Neurons in 6 well plates were washed gently 3× with HBSS and frozen at −80° C. Cell lysates were obtained by addition of 130 μl/well 10 mM Tris pH 7.4 with complete Mini protease inhibitors and scraping of wells. Plates were kept on ice during processing. Lysates were homogenized by hand briefly with a green pestle in 1.5 ml centrifuge tubes and then vortexed at high speed for 5 seconds. Lysates were centrifuged at 13,000 g, 10 minutes, 4 C and supernatants (cytosol fraction) were transferred in a new tube. A crash solution constituted of 80% acetonitrile and 20% water with bucetin, d5-Cr (internal standard) was added at 4:1 volume to volume to 50 ul of all samples for a total volume of 250 μL. Then plate was spun at 4000 rpm, 10 minutes, […] Samples were transferred to a new plate and frozen at −80 C prior to analysis by LC-MS/MS (Table 4B).

[8] = Single-dose study in CrT KO mice: creatine and creatinine in plasma and brain over 8 h (FIG. 1); type: in vivo
Procedure: FIG. 1 is a graph of the data from a single-dose study comparing d3-creatine and d3-creatinine levels in the plasma and brain of CrT KO mice treated with compound 15 and measured over 8 h. Cr=d3-creatine; CRN=d3-creatinine.
The plasma and brain concentrations of creatine and creatinine was measured in CrT KO mice upon treatment with compound 15 (FIG. 1). […] The ratio of [creatine]Brain.[creatine]Plasma can be an useful parameter for a successful clinical development of creatine prodrugs for treating CTD and related conditions.

SMILES | Chemical Stability SGF, no enzyme % T0 at 2 hours at 37 °C. ([1]; Table 2A) [%] | AUClast prodrug in the brain [2] | brain concentration of d3-creatinine, compound 14 versus compound 15 [3] | d3-creatine (d3-Cr) levels in NHP brain on repeat administration (in words) [4] | half-life at 10 μM [5] [min] | half-life at 10 μM [6] [min] | Chemical Stability SGF, no enzyme % T0 at 2 hours at 37 °C. ([1]; Table 2C) [%] | Prodrug concentration in the cell cytosol ([7]; Study No. 2, 100 μM) | d3-Creatine concentration in the cell cytosol ([7]; Study No. 2, 100 μM) | Prodrug concentration in the cell cytosol ([7]; Study No. 2, 500 μM) | creatine levels compared to creatinine (CRN) levels [8] | brain creatine (Cr) concentration compared to plasma ([8]; measured over 8 h)
Cl.[2H]C([2H])([2H])N(CC(=O)OCCCCCCC)C(=N)NC(=O)CCCCCC [Compound 14] | 80 | BQL | not significantly different | dramatically increases |  |  |  |  |  |  |  | 
Cl.[2H]C([2H])([2H])N1CC(=O)OCCCCCCCCCCC(=O)NC1=N [Compound 15, 5-imino-4-trideuteriomethyl-1-oxa-4,6-diazacycloheptadecane-2,7-dione Hydrochloride] |  |  | not significantly different |  | < 5 | < 5 | 97 | BLOQ | BLOQ | BLOQ | higher than creatinine (CRN) levels | higher than the concentration in plasma
